This note sets out measurements from ChEMBL document CHEMBL3856229, “Hybrid Antibiotic Overcomes Resistance in P. aeruginosa by Enhancing Outer Membrane Penetration and Reducing Efflux” (J Med Chem, 2016).

Assay type in all cases: functional
The test system of one test is Escherichia coli. Briefly: Antibacterial activity against fluoroquinolone resistant Escherichia coli isolate 87164 harboring beta-lactamase CTX-M-15/TEM-1.
In the next test the test system is Acinetobacter baumannii. Briefly: Antibacterial activity against fluoroquinolone resistant Acinetobacter baumannii isolate ABO28.
The test system of test [1] is Pseudomonas aeruginosa. Briefly: Potentiation of moxifloxacin induced antibacterial activity against multidrug/extremely drug-resistant Pseudomonas aeruginosa isolate PA259-96918 assessed as moxifloxacin MIC at <= […] ug/ml (reference value: […] ug/ml).
The subject of test [2] is Pseudomonas aeruginosa. Kind of test: Potentiation of moxifloxacin induced antibacterial activity against multidrug/extremely drug-resistant Pseudomonas aeruginosa isolate PA264-104354 assessed as moxifloxacin MIC at <= […] ug/ml (reference value: […] to […] ug/ml).
Test [3] deals with Pseudomonas aeruginosa. Briefly: Antibacterial activity against multidrug/extremely drug-resistant Pseudomonas aeruginosa isolate PA260-97103 in presence of <= 4 ug/ml of moxifloxacin (reference value: 1 ug/ml).
Test [4] has as its system Pseudomonas aeruginosa. Kind of test: Induction of cytoplasmic membrane depolarization in Pseudomonas aeruginosa PAO1 by DiSC3(5) dye based fluorescence assay.

Structures are written as SMILES.

Usually MIC stands for the lowest concentration found to suppress growth. As for `COc1c(N2C[C@@H]3CCCN(CCCCCCCCCCCCO[C@@H]4[C@@H](O[C@H]5O[C@H](CO)[C@@H](O)[C@H](N)[C@H]5O)[C@H](N)C[C@H](N)[C@H]4O[C@H]4O[C@H](CN)[C@@H](O)C[C@H]4N)[C@@H]3C2)c(F)cc2c(=O)c(C(=O)O)cn(C3CC3)c12.Cl.Cl.Cl.Cl.Cl`, the MIC with Escherichia coli was not below 64 µg/mL; with Acinetobacter baumannii, 8 to 64 µg/mL; in the test on Pseudomonas aeruginosa [1], less than 1 µg/mL; in the test on Pseudomonas aeruginosa [2], 1 µg/mL; with Pseudomonas aeruginosa [3], 0.25 µg/mL. Besides, the Activity entry with Pseudomonas aeruginosa [4] is “Dose-dependent effect”.
